What all share (assay type): cell-based, human
Assay [1] relates to OPM-2 cells. Briefly: PARP cleavage by Western blotting, OPM-2. The protocol: In osteoclast coculture experiments, OPM-2 cells (1×10^6 cells) were added to osteoclasts in 60 mm dishes (4×10^6 cells per dish) in 3 ml MEM medium supplemented with 10% FCS, 100 U/ml penicillin, 100 μg/ml streptomycin. GSI15 (30 μM, 60 μM) or DMSO (equivalent to 60 μM) as solvent control were added to each well (daily treatment). After 48 h, 0.5 ml OPM-2 cell suspension were harvested per well and subjected to AnnexinV-FITC/PI staining. Remaining OPM-2 cells were harvested and lysed for either RNA or protein preparation. The monolayer of osteoclasts was washed twice with ice-cold PBS and then lysed for either RNA or protein preparation directly on the plate.
In osteoblast coculture experiments, OPM-2 cells (7.5×10^5) were added to osteoblasts (2×10^5 cells) in 6-well plates in 2 ml DMEM/HAM's F12 medium supplemented with 10% FCS, 100 U/ml penicillin, 100 μg/ml streptomycin. GSI15 (40 μM, 60 μM, 80 μM) or DMSO (equivalent to 80 μM) as solvent control was added to each well (daily treatment). After 72 h of coculture and GSI15 treatment OPM-2 cells in suspension were aspirated and subjected to protein lysis. The remaining monolayer of osteoblasts was washed twice with ice-cold PBS and lysed directly on the plate with protein lysis buffer.
Whole cell extracts were prepared and quantified as described in Jundt F, Anagnostopoulos I, Forster R, Mathas S, Stein H, Dorken B. Activated Notch1 signaling promotes tumor cell proliferation and survival in Hodgkin and anaplastic large cell lymphoma. Blood. 2002; 99:3398-3403. Proteins (30 μg) were resolved by sodium dodecyl sulfate-polyacrylamide gel electrophoresis (SDS-PAGE) and transferred to nitrocellulose membranes. Protein loading was normalized by Ponceau red staining. […]
(§1) Secondary antibodies were goat anti-mouse (Promega, Mannheim, Germany), goat anti-rat (Dianova, Hamburg, Germany), and goat anti-rabbit (Santa Cruz Biotechnology) horseradish peroxidase (HRP)-conjugated antibodies. Detection was done using Pico chemi-luminescence reagent (Perbio Science, Bonn, Germany).
For orientation: Immunoblotting shows a protein as a band on a membrane.

In assay [2] the test system is OBL. Briefly: Viability assay, OBL. The protocol:
For assaying proliferation/viability of cells CellTiter-Glo Luminescent Cell Viability Assay (Promega, Mannheim, Germany) was used. In this assay the number of viable cells at a given time point is determined by quantification of ATP present, which serves as a measure of metabolically active cells. The assay was carried out according to manufacturer's protocol. Briefly, cells were plated in 96-well plates at 10,000 cells per well in 100 μl medium and treated with indicated amounts of GSI15, with DMSO as solvent control or left untreated. Each treatment was done in four independent replicates in different wells. 24 h and 48 h after start of treatment 30 μl per well were transferred into an opaque-walled plate and lysed using CellTiter-Glo solution. Luminescence was recorded and integrated for two seconds per well. Average values were calculated and normalized to the respective untreated sample.

Assay [3] has as its system OPM-2 cocultured with OCL. Briefly: OPM-2/OCL coculture, apoptosis of OPM-2 by AnnexinV-FITC/PI staining. Conditions: 60 μM GSI15, 48 h. The procedure: Human MM cell lines used were as follows: NCI-H929, OPM-2, LP-1, RPMI-8226, U266 (DSMZ, Braunschweig, Germany). Cell lines were cultured in RPMI 1640 medium (Biochrom, Berlin, Germany) supplemented with 10% heat-inactivated fetal calf serum (FCS, Gibco, Karlsruhe, Germany), 1 mM sodium pyruvate and 100 units/ml penicillin and 100 μg/ml streptomycin (Gibco). Human osteoclasts were obtained as described in the reference of Zavrski I, Krebbel H, Wildemann B, et al. Proteasome inhibitors abrogate osteoclast differentiation and osteoclast function. Biochem Biophys Res Commun. 2005; 333:200-205. Briefly, peripheral blood mononuclear cells (PBMC) were isolated from whole blood of healthy volunteers, using a Ficoll-Hypaque density gradient. […]
For cell cycle analysis 2×10^5 cells were spun down, medium was aspirated and cells washed with PBS. […] After 10 minutes incubation in the dark at room temperature, cells were analyzed by flow cytometry. The amount of apoptotic cells was determined by AnnexinV/propidium iodide staining using Human AnnexinV-FITC Kit (Bender Medsystems, Vienna, Austria), according to manufacturer's protocol. […] Cells were then spun down again, resuspended in binding buffer containing PI and analyzed by flow cytometry.

Assay [4] has as its system MSC. Briefly: PARP cleavage in mesenchymal stem cells (MSC), mono- and coculture. Conditions: mono- and cocultures, high doses of GSI15. The procedure:
Whole cell extracts were prepared and quantified as described in Jundt F, Anagnostopoulos I, Forster R, Mathas S, Stein H, Dorken B. Activated Notch1 signaling promotes tumor cell proliferation and survival in Hodgkin and anaplastic large cell lymphoma. Blood. 2002; 99:3398-3403. Proteins (30 μg) were resolved by sodium dodecyl sulfate-polyacrylamide gel electrophoresis (SDS-PAGE) and transferred to nitrocellulose membranes. Protein loading was normalized by Ponceau red staining. Membranes were incubated with monoclonal mouse anti-Notch1 antibody (no. 552466; BD Biosciences, Heidelberg, Germany), anti-Jagged1 antibody (sc-8303; Santa Cruz Biotechnology), polyclonal rabbit anti-Delta antiboday (Santa Cruz Biotechnology), polyclonal rabbit anti-cleaved PARP (Asp214) antibody (Cell Signaling Technologies, Frankfurt a.M., Germany) or mouse monoclonal anti-tubulin antibody (Sigma, Deisenhofen, Germany).
as §1

`CC(C)c1ccc(S(=O)(=O)Nc2cccnc2Oc2ccc(Cl)cc2)cc1` [Example 1, N-(2-(4-chlorophenoxy)pyridin-3-yl)-4-isopropylbenzenesulfonamide]: the PARP cleavage result in assay [1] (MM cells in coculture with OBL or MSC) is “apoptosis induction”; in assay [1] (OPM-2 in mono- and coculture with OCL), “Strong induction of PARP cleavage”. In addition, the “PARP cleavage product (apoptosis marker)” value in assay [1] (OPM-2, 30 μM GSI15) was “Apoptosis induction could be shown”. Moreover, in assay [2], the viability result is “no difference between untreated and GSI15 treated”. The “overall amount of apoptotic cells” value in assay [3] is 83%. Besides, the “PARP cleavage (apoptosis)” value in assay [4] was “Neither in OBL nor in MSC apoptosis was induced”.

Values taken from patent US20110251220A1, “Pharmaceutical compositions comprising gamma secretase modulators” (priority 2008, published 2011).
